Counter-ions that a name gives are not always drawn.

The nature of data set [1]: Acute toxicity in mice after i.v. administration. Type of data set: in vivo, Mäusen. The following applies: mouse, in vivo, iv, mean weight 22 g, i. v. in physiological saline, dose at which 50% of animals died, observation time 14 days, Litchfield and Wilcoxon. The text has this: (§1) Die akute Toxizität der zu untersuchenden Substanzen, welche in physiologischer Kochsalzlösung gelöst wurden, wurde an Mäusen mit einem durchschnittlichen Gewicht von 22 g nach i. v. Gabe (0.1 mt/10 g) bestimmt. Es wurde die LD50, die Dosis bei welcher 50% der Tiere nach einer Beobachtungszeit von 14 Tagen verstarben, nach der Methode von Litchfield und Wilcoxon (J. Pharmacol. exp. Ther. 96, 99-113 (1949)) berechnet.

The next data set concerns Mäusen. The data set is described as follows: Acute toxicity in mice after i.v. administration. Type of data set: in vivo. Particulars: mean weight 22 g, i. v. in physiological saline, dose at which 50% of animals died, observation time 14 days, Litchfield and Wilcoxon.
Description: as §1

Data set [2] deals with Fettsäuregehalt des Blutes. The data set is described as follows: Lipolytic effect in rabbits (blood fatty acid content, method of Duncombe). Type of data set: in vivo, Kaninchen. The following applies: Oryctolagus cuniculus, iv; male and female rabbits, mean weight 2,3 kg; i. v. in physiological saline; dose causing a 50% reduction of blood fatty acid content; calculated according to Fieler; read-out: ED50 µg/kg i. v. The text has this:
Beispielsweise wurde die lipolytische Wirkung der Verbindungen • A = 1-(4-Amino-3-cyan-5-fluor-phenyl)-2-tert.butylamino-äthanol-hydrochlorid, • B = 1-(4-Amino-3-cyan-5-fluor-phenyl)-2-isopropylamino-äthanol-hydrochforid, • C = 1-(4-Amino-3-cyan-5-fluor-phenyl)-2-cyclobutylamino-äthanol-hydrochlorid, • D = 1-(4-Amino-3-chlor-5-cyan-phenyl)-2-isopropylamino-äthanol-hydrochlorid, • E = 1-(4-Amino-3-chlor-5-cyan-phenyl)-2-cyclobutylamino-äthanol-hydrochlorid, • F = 1-(4-Amino-3-chlor-5-cyan-phenyl)-2-cyclopentylamino-äthanol-hydrochlorid und • G = 1-(4-Amino-3-chlor-5-trifluormethylphenyl)-2-cyclobutylamino-äthanor-hydrochlorid
an Kaninchen wie folgt geprüft:
Die zu untersuchenden Substanzen wurden männlichen und weiblichen Kaninchen mit einem durchschnittlichen Gewicht von 2,3 kg, gelöst in physiologischer Kochsalzlösung i. v. injiziert (0,2 mg/kg). Der Fettsäuregehalt des Blutes wurde nach der Methode von Duncombe (Biochem. J. 88, 7-10 (1963)) bestimmt. Es wurde die EDso, die Dosis, die eine 50%ige Senkung des Fettsäuregehaltes bewirkt, nach Fieler (Quart. J. Pharm. Pharmacol. 17, 117―123 (1964)) berechnet.

In data set [1], `CC(C)(C)NCC(O)c1cc(F)c(N)c(C#N)c1` (stereo not shown) [A, 1-(4-Amino-3-cyan-5-fluor-phenyl)-2-tert.butylamino-äthanol-hydrochlorid] came in with an LD50 at 336 h of 73.6 mg/kg.

Regarding `CC(C)NCC(O)c1cc(F)c(N)c(C#N)c1` (stereo not shown) [B, 1-(4-Amino-3-cyan-5-fluor-phenyl)-2-isopropylamino-äthanol-hydrochforid], the “LD50 mg/kg i. v.” value with Mäusen was 66,4 mg/kg.

With `CC(C)NCC(O)c1cc(Cl)c(N)c(C#N)c1` (stereo not shown) [D, 1-(4-Amino-3-chlor-5-cyan-phenyl)-2-isopropylamino-äthanol-hydrochlorid], the LD50 at 336 h in data set [1] is 81 mg/kg.

On to `N#Cc1cc(C(O)CNC2CCCC2)cc(Cl)c1N` (stereo not shown) [F, 1-(4-Amino-3-chlor-5-cyan-phenyl)-2-cyclopentylamino-äthanol-hydrochlorid], for which the ED50 in data set [2] was 0.16 µg/kg. In the data set on Mäusen, the “LD50 mg/kg i. v.” value is 39,1 mg/kg.

As to `Nc1c(Cl)cc(C(O)CNC2CCC2)cc1C(F)(F)F` (stereo not shown) [G, 1-(4-Amino-3-chlor-5-trifluormethylphenyl)-2-cyclobutylamino-äthanor-hydrochlorid], the ED50 in data set [2] was 0.46 µg/kg.

`N#Cc1cc(C(O)CNC2CCC2)cc(Cl)c1N` (stereo not shown) [Verbindung E, 1-(4-Amino-3-chlor-5-cyan-phenyl)-2-cyclobutylamino-äthanol-hydrochlorid] displayed a 50% lethal dose (LD50) at 336 h in data set [1] of 43.9 mg/kg.

Broadly, the LD50 is the dose expected to kill half of the subjects tested.

(Values after patent publication EP0057900B1, “Animal feed additive for improving growth” (Dr. Karl Thomae GmbH, priority 1981, dated 1982).)
